Data: PMC10233092, “Selective Janus kinase 1 inhibition resolves inflammation and restores hair growth offering a viable treatment option for alopecia areata” (Skin Health and Disease, 2023)
In brackets after ≈: the same amount, converted by molar mass. Several values for one entry are separate records, joined by “and”; a condition that tells them apart may be missing. Equal values may be shown once.

Tests used:
JAK1 = JAK1 (Homo sapiens, UniProt P23458); assay: JAK1 kinase inhibition, Calliper assay; assay type: biochemical; conditions: physiological ATP concentration of 5 mM
Sequence of JAK1 (P23458 whole entry, species assumed): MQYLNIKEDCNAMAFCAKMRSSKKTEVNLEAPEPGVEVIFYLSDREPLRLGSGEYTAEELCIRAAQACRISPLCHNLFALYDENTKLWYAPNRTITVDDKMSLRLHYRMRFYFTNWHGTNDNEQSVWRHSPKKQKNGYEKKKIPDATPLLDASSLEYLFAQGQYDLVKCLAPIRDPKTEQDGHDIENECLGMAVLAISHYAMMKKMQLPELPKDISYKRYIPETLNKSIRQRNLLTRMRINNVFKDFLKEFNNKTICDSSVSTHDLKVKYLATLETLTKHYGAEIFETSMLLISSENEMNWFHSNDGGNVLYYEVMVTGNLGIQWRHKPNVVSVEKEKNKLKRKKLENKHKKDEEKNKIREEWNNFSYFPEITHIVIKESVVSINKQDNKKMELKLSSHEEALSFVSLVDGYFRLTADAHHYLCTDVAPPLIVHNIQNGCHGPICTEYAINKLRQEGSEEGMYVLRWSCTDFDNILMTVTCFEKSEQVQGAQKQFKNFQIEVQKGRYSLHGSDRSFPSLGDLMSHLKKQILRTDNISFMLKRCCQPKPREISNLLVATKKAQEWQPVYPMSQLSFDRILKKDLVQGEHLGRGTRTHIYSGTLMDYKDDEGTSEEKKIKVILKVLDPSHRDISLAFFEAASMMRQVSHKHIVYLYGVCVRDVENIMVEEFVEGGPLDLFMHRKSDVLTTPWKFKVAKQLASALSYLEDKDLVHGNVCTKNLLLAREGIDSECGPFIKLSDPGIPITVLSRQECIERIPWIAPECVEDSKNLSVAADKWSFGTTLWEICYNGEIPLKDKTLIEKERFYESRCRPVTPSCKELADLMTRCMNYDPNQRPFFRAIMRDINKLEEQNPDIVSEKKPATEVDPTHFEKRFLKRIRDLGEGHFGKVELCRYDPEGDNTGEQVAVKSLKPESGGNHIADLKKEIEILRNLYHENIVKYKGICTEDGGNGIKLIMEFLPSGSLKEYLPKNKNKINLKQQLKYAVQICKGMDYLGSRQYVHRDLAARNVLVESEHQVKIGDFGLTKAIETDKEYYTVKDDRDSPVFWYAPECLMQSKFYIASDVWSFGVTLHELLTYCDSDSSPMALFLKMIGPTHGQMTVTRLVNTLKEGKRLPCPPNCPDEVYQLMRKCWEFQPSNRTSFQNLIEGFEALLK

[1] = Solubility in phosphate buffer; assay type: physicochemical; conditions: pH 7.4, aqueous buffer
Description: TABLE 1 In vitro potency and selectivity of JAK inhibitors | column: Solubility (μM) ^c

Basic pKa = assay type: physicochemical; conditions: read-out: Basic pKa's
Description: TABLE 2 In vitro and in vivo DMPK properties of Cmpd A, B & C | column: In vitro mouse & physical chemical properties / Basic pKa's

[2] = Unbound fraction in tissue from rearranged Gillette equation; assay type: in vitro ADME, mouse; conditions: mouse; from rearranged Gillette equation, V blood 0.07 L/kg, V tissue 0.6 L/kg
Description: (§1) Detailed description in Supplementary materials.

[3] = Caco permeability and efflux; assay type: in vitro ADME; conditions: human, Caco-2; for Papp A→B: read-out: Caco AtB
Description: TABLE 2 In vitro and in vivo DMPK properties of Cmpd A, B & C | column: In vitro mouse & physical chemical properties / Caco AtB 10^−6 cm/s/Efflux ratio ^b

[4] = Mouse pharmacokinetics i.v./p.o.; assay type: in vivo; conditions: plasma, male C57Bl6 mice; for clearance / Vd: iv, i.v. 0.5-1.0 mg/kg; for Vd: read-out: V ss; for bioavailability: po, p.o. 300 (A), 1.0 (B), 2.0 (C) mg/kg, read-out: Oral % F
Procedure: as §1
Pharmacokinetics and evaluation of compound exposures: Male C57/BL mice were obtained from Si Bei Fu and weighed approximately 20-30 grams (7-9 weeks) at the start of the pharmacokinetic study. Animals had free access to food and water during the course of the experiment. Dose formulations were prepared on the study day and were stirred at room temperature for at least 15 minutes prior dosing and during the administration event. Cmpd A, B and C were dosed at 0.5-1 mg/kg i.v. and 1-300 mg/kg p.o. The dorsal metatarsal vein was used for sampling and typically 0.02 mL blood was withdrawn. Blood was taken at 2, 5, 15, 45 min, 2, 4, 8, 24 hours post the i.v. dose and at 15, 30 min, 1, 2, 4, 8, 24 hours post the p.o. dose. Blood of each sample was transferred into plastic micro centrifuge tubes containing 2 μL of 1000 IU Heparin-Na anticoagulant. These tubes were then inverted several times and placed on wet ice prior to centrifugation at 10,000 rpm for 2 minutes at 4°C in order to collect plasma. Plasma samples were stored at -75±15°C prior analysis. Compound concentrations were analyzed using a LC-MS/MS method (see below).
Effective T1/2 equals Ln2 x Vss/CL.

[5] = system: C3H/HeJ mouse model of AA; assay: Hair growth (Hair Index Score) in C3H/HeJ graft-induced AA mice; assay type: in vivo; conditions: for hair growth, result in words: AA mice; for Hair index score (% area x score, 0 to 3): individual mice and mean±SD
Procedure: Female C3H/HeJ graft‐induced mice were used as a preclinical model of Alopecia Areata (AA) according to previous publications.[45], [46], [47] Healthy C3H/HeJ and mice with fully developed AA (16–24 weeks after induction of disease) were monitored by means of body weight and hair index score on a weekly basis for 12 weeks, with free access to food and water (Healthy and AA groups, respectively).
Hair growth was evaluated using a scoring index (Hair Index Score, HIS). A score from 0 to 3 (0 = no fur, 1 = stubble, short broken hairs, 2 = sparse, intermediate length hairs, 3 = normal length and density hairs) was taken times the surface area of the mouse with each respective score (dorsal area = 50%, ventral area = 50%).
12 mice were given once daily servings of Cmpd A for free eating at approximately 100 mg/kg (compound dissolved in 10 ml tap water and mixed with 5 g grounded R70 standard rodent chow from Lantmännen, Sweden) for 4 weeks. Typically, these servings were finished within 2 h. Six mice were terminated at the end of the treatment period, blood and skin taken for determination of drug concentration and skin sampled for histopathological evaluation (see below, these mice are representing the systemic JAK1 inhibition group in histopathological evaluations). Skin biopsies for mRNA expression and blood was sampled from the other 6 mice where after these mice were followed off treatment for an additional 8 weeks when terminal samples were taken (8w off Tx group).
Another set of 6 mice were treated topically on the right side of their back with Cmpd B (0.1% cream formulation, Eucerin Aquaporin rich) for 12 weeks (local JAK1 inhibition group). Initially, twice weekly for 2 weeks followed by once weekly due to high tissue retention. Plasma exposure was evaluated during the course of the study as well as at termination when also skin was sampled for exposure, histopathological evaluation and mRNA expression.
The aim of the study was to achieve similar skin exposures by both routes of administration but only systemic exposure after oral administration. […] Blood, skin, lymph nodes and spleens were collected at termination for evaluation of exposure, mRNA expression, histopathology (RNAScope) and cell differentials (flow cytometry). Untreated healthy and alopecic mice served as controls (n = 6).

[6] = topical application (local exposure)

Cc1cnc(Nc2cc(N3C[C@@H]4C[C@H]3CN4C)cnc2F)nc1N[C@H](C)[C@H](C)CO [Cmpd B, (2S,3R)-3-{[2-({2-fluoro-5-[(1S,4S)-5-methyl-2,5-diazabicyclo[2.2.1]heptan-2-yl]pyridin-3-yl}amino)-5-methylpyrimidin-4-yl]amino}-2-methylbutan-1-ol]
IC50 (JAK1): 9.3 nM | solubility [1]: > 955 µM | pKa (Basic pKa): 8.6 | f u, tissue [2]: 0.063 | efflux ratio ([3]; Efflux ratio = BtA/AtB): 14 | Papp A→B [3]: 0.3 ×10⁻⁶ cm/s | clearance [4]: 38 mL/min/kg | Vd [4]: 8.4 L/kg | bioavailability [4]: 16% | hair growth, result in words [5, 6]: did not restore hair growth | Hair index score (% area x score, 0 to 3) ([5]; Local JAK1i (0.1% cream topical), treated side, w0, n=6): 50 and 0 | Hair index score (% area x score, 0 to 3) ([5]; Local JAK1i (0.1% cream topical), treated side, w0, n=6, mean): 17±26 | Hair index score (% area x score, 0 to 3) ([5]; Local JAK1i (0.1% cream topical), untreated side, w0, n=6): 30 and 0 and 10 | Hair index score (% area x score, 0 to 3) ([5]; Local JAK1i (0.1% cream topical), untreated side, w0, n=6, mean): 7±12 | Hair index score (% area x score, 0 to 3) ([5]; Local JAK1i, treated side, w1): 50 and 0 and 100 | Hair index score (% area x score, 0 to 3) ([5]; Local JAK1i, treated side, w1, mean): 25±42 | Hair index score (% area x score, 0 to 3) ([5]; Local JAK1i, treated side, w4): 80 and 0 and 10 and 20 | Hair index score (% area x score, 0 to 3) ([5]; Local JAK1i, treated side, w4, mean): 18±31 | Hair index score (% area x score, 0 to 3) ([5]; Local JAK1i, treated side, w6): 200 and 0 and 50 and 30 | Hair index score (% area x score, 0 to 3) ([5]; Local JAK1i, treated side, w6, mean): 47±78 | Hair index score (% area x score, 0 to 3) ([5]; Local JAK1i, treated side, w7): 200 and 80 and 0 and 100 | Hair index score (% area x score, 0 to 3) ([5]; Local JAK1i, treated side, w7, mean): 80±75 | Hair index score (% area x score, 0 to 3) ([5]; Local JAK1i, treated side, w8): 200 and 0 and 50 and 100 | Hair index score (% area x score, 0 to 3) ([5]; Local JAK1i, treated side, w8, mean): 58±80 | Hair index score (% area x score, 0 to 3) ([5]; Local JAK1i, treated side, w9): 240 and 0 and 25 and 70 and 90 | Hair index score (% area x score, 0 to 3) ([5]; Local JAK1i, treated side, w9, mean): 71±91 | Hair index score (% area x score, 0 to 3) ([5]; Local JAK1i, treated side, w11): 240 and 0 and 100 and 80 | Hair index score (% area x score, 0 to 3) ([5]; Local JAK1i, treated side, w11, mean): 70±94 | Hair index score (% area x score, 0 to 3) ([5]; Local JAK1i, untreated side, w1): 40 and 0 and 100 | Hair index score (% area x score, 0 to 3) ([5]; Local JAK1i, untreated side, w1, mean): 23±41 | Hair index score (% area x score, 0 to 3) ([5]; Local JAK1i, untreated side, w4): 70 and 0 and 10 and 30 | Hair index score (% area x score, 0 to 3) ([5]; Local JAK1i, untreated side, w4, mean): 18±28 | Hair index score (% area x score, 0 to 3) ([5]; Local JAK1i, untreated side, w6): 170 and 0 and 10 and 20 | Hair index score (% area x score, 0 to 3) ([5]; Local JAK1i, untreated side, w6, mean): 33±67 | Hair index score (% area x score, 0 to 3) ([5]; Local JAK1i, untreated side, w7): 170 and 0 | Hair index score (% area x score, 0 to 3) ([5]; Local JAK1i, untreated side, w7, mean): 28±69 | Hair index score (% area x score, 0 to 3) ([5]; Local JAK1i, untreated side, w8): 170 and 0 and 10 | Hair index score (% area x score, 0 to 3) ([5]; Local JAK1i, untreated side, w8, mean): 30±69 | Hair index score (% area x score, 0 to 3) ([5]; Local JAK1i, untreated side, w9): 200 and 0 and 25 | Hair index score (% area x score, 0 to 3) ([5]; Local JAK1i, untreated side, w9, mean): 37±80 | Hair index score (% area x score, 0 to 3) ([5]; Local JAK1i, untreated side, w11): 200 and 0 and 30 and 50 | Hair index score (% area x score, 0 to 3) ([5]; Local JAK1i, untreated side, w11, mean): 47±78

COCC(C(=O)Nc1cccc2c(-c3nc(Nc4cccc(S(C)(=O)=O)c4F)ncc3F)c[nH]c12)N1CCN(C)CC1 (stereo not shown) [Cmpd C]
IC50 (JAK1): < 3 nM | solubility [1]: 6.6 µM (≈ 3.96 µg/mL) | pKa (Basic pKa): 7.9 | f u, tissue [2]: 0.011 | Papp A→B [3]: 6.7 ×10⁻⁶ cm/s | clearance [4]: 26 mL/min/kg | Vd [4]: 6.9 L/kg | bioavailability [4]: 86% | hair growth, result in words ([5]; oral daily servings (systemic exposure)): induced hair growth | hair growth, result in words [5, 6]: did not
